Experimental data as given in patent publication US20090197897A1, “Novel Oxadiazole Derivatives and Their Use as Positive Allosteric Modulators of Metabotropic Glutamate Receptors” (Addex Pharma SA, priority 2005, published 2009).

How the values were obtained:
[1] = target: T1, rat mGluR5 (Rattus norvegicus, UniProt P31424); test: mGluR5 assay on HEK-expressing rat mGluR5 (fluorescent cell based Ca2+ mobilization assay); conditions: for activation of rat mGluR5 receptors in HEK-rat mGluR5 cell line: without co-addition of glutamate or mGluR5 agonist; for EC50: HEK-293 cells stably expressing rat mGluR5, no co-addition of glutamate, mean of at least three independent experiments in duplicate, read-out: Ca++ Flux (mean EC50)
T1 construct: expressed in transfected cells
T1 sequence (P31424 21-1171 isoform P31424-2 limits assumed): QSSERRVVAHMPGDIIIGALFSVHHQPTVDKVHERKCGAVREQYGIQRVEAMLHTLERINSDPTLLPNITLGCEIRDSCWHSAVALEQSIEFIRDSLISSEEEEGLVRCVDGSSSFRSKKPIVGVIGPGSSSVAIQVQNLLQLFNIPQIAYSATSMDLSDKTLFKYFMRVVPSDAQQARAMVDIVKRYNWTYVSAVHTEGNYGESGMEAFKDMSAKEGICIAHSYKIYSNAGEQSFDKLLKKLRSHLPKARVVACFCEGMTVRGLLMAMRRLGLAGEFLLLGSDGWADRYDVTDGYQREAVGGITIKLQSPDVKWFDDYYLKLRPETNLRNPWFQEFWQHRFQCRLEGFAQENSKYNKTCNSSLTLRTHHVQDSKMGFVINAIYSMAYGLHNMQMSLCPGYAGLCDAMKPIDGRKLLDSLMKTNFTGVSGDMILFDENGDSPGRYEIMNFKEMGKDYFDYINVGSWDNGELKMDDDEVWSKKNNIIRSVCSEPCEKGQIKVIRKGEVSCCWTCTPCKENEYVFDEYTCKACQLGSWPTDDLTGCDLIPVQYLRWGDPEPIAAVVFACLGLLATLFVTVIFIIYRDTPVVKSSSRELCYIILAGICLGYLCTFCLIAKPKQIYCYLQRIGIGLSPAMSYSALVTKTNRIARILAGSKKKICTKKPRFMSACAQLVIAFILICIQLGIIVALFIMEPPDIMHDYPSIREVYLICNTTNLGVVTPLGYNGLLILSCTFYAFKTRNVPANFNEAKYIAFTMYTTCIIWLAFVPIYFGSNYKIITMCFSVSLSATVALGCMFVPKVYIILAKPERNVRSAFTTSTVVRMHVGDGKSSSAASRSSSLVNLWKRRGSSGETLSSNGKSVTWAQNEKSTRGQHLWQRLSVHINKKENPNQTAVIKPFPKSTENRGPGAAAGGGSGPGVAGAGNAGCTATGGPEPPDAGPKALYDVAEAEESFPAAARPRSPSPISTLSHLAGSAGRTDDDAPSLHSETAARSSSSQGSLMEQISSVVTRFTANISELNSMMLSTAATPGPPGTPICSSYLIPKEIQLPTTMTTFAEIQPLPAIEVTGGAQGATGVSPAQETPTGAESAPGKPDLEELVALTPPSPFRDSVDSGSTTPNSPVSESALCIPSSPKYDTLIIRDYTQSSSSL
Protocol: mGluR5 Assay on HEK-Expressing Rat mGluR5
Positive functional expression of HEK-293 cells stably expressing rat mGluR5 receptor was determined by measuring intracellular Ca^2+ changes using a Fluorometric Imaging Plate Reader (FLIPR, Molecular Devices, Sunnyvale, Calif.) in response to glutamate or selective known mGluR5 agonists and antagonists. Rat mGluR5 RT-PCR products in HEK-293 cells were sequenced and found 100% identical to rat mGluR5 Genbank reference sequence (NM_017012). HEK-293 cells expressing rmGluR5 were maintained in media containing DMEM, dialyzed Fetal Bovine Serum (10%), Glutamax™ (2 mM), Penicillin (100 units/ml), Streptomycin (100 μg/ml), Geneticin (100 μg/ml) and Hygromycin-B (40 μg/ml) at 37° C./5% CO2.
After one day of incubation, cells were washed with assay buffer containing: 142 mM NaCl, 6 mM KCl, 1 mM […], 1 mM CaCl2, 20 mM HEPES, 1 g/L glucose, 0.125 mM sulfinpyrazone, pH 7.4. After 60 min of loading with 4 uM Fluo-4 (TefLabs, Austin, Tex.), the cells were washed three times with 50 μl of PBS Buffer and resuspended in 45 μl of assay Buffer. The plates were then transferred to a Fluorometric Imaging Plate Reader (FLIPR, Molecular Devices, Sunnyvale, Calif.) for the assessment of intracellular calcium flux. After monitoring the baseline fluorescence for 10 seconds, increasing concentrations of representative compound (from 0.01 to 60 μM) of the present invention diluted in Assay Buffer (15 μl of 4× dilutions) was added to the cell. The final DMSO concentration in the assay was 0.3%. In each experiment, fluorescence was then monitored as a function of time for 3 minutes and the data analyzed using Microsoft Excel and GraphPad Prism. Each data point was also measured two times.
Under these experimental conditions, this HEK-rat mGluR5 cell line is able to directly detect positive allosteric modulators without the need of co-addition of glutamate or mGluR5 agonist.
The concentration-response curves of representative compounds of the present invention were generated using the Prism GraphPad software (Graph Pad Inc, San Diego, USA). The curves were fitted to a four-parameter logistic equation:
(Y=Bottom+(Top−Bottom)/(1+10̂((Log EC50−X)*Hill Slope)
allowing determination of EC50 values.
The Table 1 below represents the mean EC50 obtained from at least three independent experiments of selected molecules performed in duplicate.

[2] = target: T2, mGluR5 (Rattus norvegicus, UniProt P31424); conditions: Liu et al 2006, Zhang et al 2005; cited from earlier work
T2 construct: positive allosteric modulators of mGluR5 receptors in native preparations; endogenous in cells; host or cells: primary cortical astrocytes from Sprague-Dawley rat embryos (day 16 to 19)
T2 sequence (P31424 21-1203): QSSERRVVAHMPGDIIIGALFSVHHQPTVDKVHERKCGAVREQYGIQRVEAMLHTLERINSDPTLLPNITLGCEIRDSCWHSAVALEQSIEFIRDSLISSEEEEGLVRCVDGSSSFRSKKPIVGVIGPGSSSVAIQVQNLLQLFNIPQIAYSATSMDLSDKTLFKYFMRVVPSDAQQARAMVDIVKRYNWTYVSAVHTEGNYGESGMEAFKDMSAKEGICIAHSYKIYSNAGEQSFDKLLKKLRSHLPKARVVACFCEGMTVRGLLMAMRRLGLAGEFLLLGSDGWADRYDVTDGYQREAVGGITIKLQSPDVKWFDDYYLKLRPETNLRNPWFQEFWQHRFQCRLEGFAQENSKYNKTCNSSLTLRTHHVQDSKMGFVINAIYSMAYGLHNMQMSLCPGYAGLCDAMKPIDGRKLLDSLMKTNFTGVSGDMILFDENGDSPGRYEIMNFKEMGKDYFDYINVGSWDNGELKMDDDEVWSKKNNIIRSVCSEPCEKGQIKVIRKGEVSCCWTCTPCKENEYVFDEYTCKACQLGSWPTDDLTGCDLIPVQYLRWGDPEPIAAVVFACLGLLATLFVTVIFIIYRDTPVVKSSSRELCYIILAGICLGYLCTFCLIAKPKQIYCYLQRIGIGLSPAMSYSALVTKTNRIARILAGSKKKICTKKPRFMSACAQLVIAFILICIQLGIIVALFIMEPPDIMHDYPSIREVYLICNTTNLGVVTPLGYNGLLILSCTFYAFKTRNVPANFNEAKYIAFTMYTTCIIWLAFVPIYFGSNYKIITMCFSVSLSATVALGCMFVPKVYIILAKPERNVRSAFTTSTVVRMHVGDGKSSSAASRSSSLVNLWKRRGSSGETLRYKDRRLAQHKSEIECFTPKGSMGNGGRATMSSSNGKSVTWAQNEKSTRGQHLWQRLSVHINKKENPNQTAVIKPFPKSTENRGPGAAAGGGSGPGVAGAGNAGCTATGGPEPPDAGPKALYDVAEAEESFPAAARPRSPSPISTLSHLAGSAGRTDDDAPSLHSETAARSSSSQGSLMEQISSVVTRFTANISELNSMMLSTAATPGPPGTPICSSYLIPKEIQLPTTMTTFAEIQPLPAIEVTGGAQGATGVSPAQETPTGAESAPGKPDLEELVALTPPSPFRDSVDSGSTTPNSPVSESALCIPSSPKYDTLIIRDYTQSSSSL

[3] = test system: amphetamine-induced locomotor activation in mice; test: Amphetamine model of schizophrenia (amphetamine-induced locomotor activity); assay type: in vivo; conditions: 30 & 50 mg/kg ip, 30 min before amphetamine 3.0 mg/kg s.c., 60 min
Excerpt: Amphetamine-induced increases in locomotor ambulation are well known and are widely used as a model of the positive symptoms of schizophrenia. This model is based on evidence that amphetamine increases motor behaviors and can induce a psychotic state in humans (Yui et al. (2000) Ann NY Acad Sci 914:1-12). Further, it is well known that amphetamine-induced increases in locomotor activity are blocked by antipsychotics drugs that are effective in the treatment of schizophrenia (Arnt (1995) Eur J Pharmacol 283:55-62). […]
Assessment of locomotor (ambulatory) activity: The effects of compounds on amphetamine-induced locomotor activation in mice were tested. […] Locomotor activity (ambulations) was monitored by a videotracking system (VideoTrack, Viewpoint, Champagne au Mont d'Or, France) that recorded the ambulatory movements of mice. […] Mice were placed into the locomotor boxes immediately after the amphetamine injection and their locomotor activity, defined as the distance traveled in centimeters (cm), was measured for 60 minutes. […]
Statistical analyses: Statistical analyses were performed using GraphPad PRISM statistical software (GraphPad, San Diego, Calif., USA). Data were analyzed using one-way analysis of variance (ANOVA) followed by post-hoc Bonferroni-corrected multiple comparisons, where appropriate. […]

| SMILES | EC50 [1] [µM] | melting point [°C] | other results |
| --- | --- | --- | --- |
| N#Cc1cccc(C(=O)Nc2cc(-c3ccccc3)nn2-c2ccccc2)c1 [CDPPB, reference compound] | – | – | activation of rat mGluR5 receptors in HEK-rat mGluR5 cell line [1]: activating; activity in rat cortical astrocytes culture in the absence of added glutamate [2]: inactive |
| O=C(Nc1ccc(Cl)cc1CN1C(=O)c2ccccc2C1=O)c1ccccc1O [CPPHA, reference compound] | – | – | activation of rat mGluR5 receptors in HEK-rat mGluR5 cell line [1]: activating; activity in rat cortical astrocytes culture in the absence of added glutamate [2]: inactive |
| Fc1cccc(/C=N/N=C/c2cccc(F)c2)c1 [DFB, reference compound] | – | – | activation of rat mGluR5 receptors in HEK-rat mGluR5 cell line [1]: activating; activity in rat cortical astrocytes culture in the absence of added glutamate [2]: inactive |
| Cc1oncc1C(=O)N1CCC[C@H](c2nc(-c3ccc(F)cc3)no2)C1 [Example 5, (S)-{3-[3-(4-Fluoro-phenyl)-[1,2,4]oxadiazol-5-yl]-piperidin-1-yl}-(5-methyl-isoxazol-4-yl)-methanone] | < 1 | – | increase in locomotor activity induced by amphetamine ([3]; listed as compound # 5): significantly attenuated; increase in locomotor activity induced by amphetamine ([3]; listed as example 5): significantly attenuate |
| O=C(c1c(F)cc(F)cc1F)N1CCC[C@H](c2nc(-c3ccc(F)cc3)no2)C1 [Example 12, {(S)-3-[3-(4-Fluoro-phenyl)-[1,2,4]oxadiazol-5-yl]-piperidin-1-yl}-(2,4,6-trifluoro-phenyl)-methanone] | 1 to 10 | 125 to 130 | – |
| Cc1ncccc1C(=O)N1CCC[C@H](c2nc(-c3ccc(F)cc3)no2)C1 [Example 16, {(S)-3-[3-(4-Fluoro-phenyl)-[1,2,4]oxadiazol-5-yl]-piperidin-1-yl}-(2-methyl-pyridin-3-yl)-methanone] | 1 to 10 | 115 to 116 | – |
| Cc1cc(C(=O)N2CCC[C@H](c3nc(-c4ccc(F)cc4)no3)C2)c(C)n1C [Example 17, {(S)-3-[3-(4-Fluoro-phenyl)-[1,2,4]oxadiazol-5-yl]-piperidin-1-yl}-(1,2,5-trimethyl-1H-pyrrol-3-yl)-methanone] | 1 to 10 | 122 to 126 | – |
| Cc1cc(C(=O)N2CCC[C@H](c3nc(-c4ccc(F)cc4)no3)C2)c(C)o1 [Example 23, (2,5-Dimethyl-furan-3-yl)-{(S)-3-[3-(4-fluoro-phenyl)-[1,2,4]oxadiazol-5-yl]-piperidin-1-yl}-methanone] | < 1 | 114 to 118 | – |
| O=C(c1cccc2c1OCCO2)N1CCC[C@H](c2nc(-c3ccc(F)cc3)no2)C1 [Example 25, (S)-(2,3-Dihydro-benzo[1,4]dioxin-5-yl)-{3-[3-(4-fluoro-phenyl)-[1,2,4]oxadiazol-5-yl]-piperidin-1-yl}-methanone] | 1 to 10 | 57 to 60 | – |
| COc1cc(C(=O)N2CCC[C@H](c3nc(-c4ccc(F)cc4)no3)C2)ccc1F [Example 26, (S)-(4-Fluoro-3-methoxy-phenyl)-{3-[3-(4-fluoro-phenyl)-[1,2,4]oxadiazol-5-yl]-piperidin-1-yl}-methanone] | 1 to 10 | 109 to 111 | – |
| Cc1cnccc1C(=O)N1CCC[C@H](c2nc(-c3ccc(F)cc3)no2)C1 [Example 27, (S)-{3-[3-(4-Fluoro-phenyl)-[1,2,4]oxadiazol-5-yl]-piperidin-1-yl}-(3-methyl-pyridin-4-yl)-methanone] | 1 to 10 | 59 to 63 | – |
| Cc1c[nH]cc1C(=O)N1CCC[C@H](c2nc(-c3ccc(F)cc3)no2)C1 [Example 43, {(S)-3-[3-(4-Fluoro-phenyl)-[1,2,4]oxadiazol-5-yl]-piperidin-1-yl}-(4-methyl-1H-pyrrol-3-yl)-methanone] | 1 to 10 | 167.5 to 168.9 | – |
| O=C(c1ccc(F)c(F)c1)N1CCC[C@H](c2nc(-c3ccsc3)no2)C1 [Example 45, (3,4-Difluoro-phenyl)-[(S)-3-(3-thiophen-3-yl-[1,2,4]oxadiazol-5-yl)-piperidin-1-yl]-methanone] | < 1 | 92 to 97 | – |
| O=C(c1ccc(F)cc1)N1CCC[C@H](c2nc(-c3cscn3)no2)C1 [Example 50, (4-Fluoro-phenyl)-[(S)-3-(3-thiazol-4-yl-[1,2,4]oxadiazol-5-yl)-piperidin-1-yl]-methanone] | 1 to 10 | 118 to 120 | – |
| O=C(c1ccc(F)c(F)c1)N1CCC[C@H](c2nc(-c3cscn3)no2)C1 [Example 51, (3,4-Difluoro-phenyl)-[(S)-3-(3-thiazol-4-yl-[1,2,4]oxadiazol-5-yl)-piperidin-1-yl]-methanone] | 1 to 10 | 107 to 109 | – |
| O=C(c1ccc(F)c(F)c1)N1CCC[C@H](c2nc(-c3ccncc3)no2)C1 [Example 52, (3,4-Difluoro-phenyl)-[(S)-3-(3-pyridin-4-yl-[1,2,4]oxadiazol-5-yl)-piperidin-1-yl]-methanone] | < 1 | 102 to 106 | – |
| O=C(c1ccc(F)c(F)c1)N1CCC[C@H](c2nc(-c3ccccn3)no2)C1 [Example 54, (3,4-Difluoro-phenyl)-[(S)-3-(3-pyridin-2-yl-[1,2,4]oxadiazol-5-yl)-piperidin-1-yl]-methanone] | < 1 | 135 to 137 | – |
| CN(C)c1ccc(-c2noc([C@H]3CCCN(C(=O)c4ccc(F)cc4)C3)n2)cc1 [Example 58, {(S)-3-[3-(4-Dimethylamino-phenyl)-[1,2,4]oxadiazol-5-yl]-piperidin-1-yl}-(4-fluoro-phenyl)-methanone] | > 10 | 147 to 153 | – |
| O=C(c1ccnc(F)c1)N1CCC[C@H](c2nc(-c3ccc(F)cc3)no2)C1 [Example 77, {(S)-3-[3-(4-Fluoro-phenyl)-[1,2,4]oxadiazol-5-yl]-piperidin-1-yl}-(2-fluoro-pyridin-4-yl)-methanone] | < 1 | 93 to 95 | – |
